Data from article PMC11801377, “A uniquely efficacious type of CFTR corrector with complementary mode of action” (Science Advances, 2024).

Assays:
CFTR = test system: CFTR; set-up: method as in earlier work; details: ref [27] (GLPG-2737); ref [21], [26], [27] (ELX); cited from earlier work
S945L CFTR = target: T1, S945L CFTR (Homo sapiens, UniProt P13569, S945L); assay: CFTR correction (immunoblotting), HEK-TREx, S945L; type: cell-based; details: 48 hours, IDOR-3 2 μM, IDOR-4 0.4 μM, TEZ 2 μM + ELX 0.4 μM
T1 construct: expressed in transfected cells; host or cells: T-REx HEK293
T1 sequence (P13569 whole entry S945L): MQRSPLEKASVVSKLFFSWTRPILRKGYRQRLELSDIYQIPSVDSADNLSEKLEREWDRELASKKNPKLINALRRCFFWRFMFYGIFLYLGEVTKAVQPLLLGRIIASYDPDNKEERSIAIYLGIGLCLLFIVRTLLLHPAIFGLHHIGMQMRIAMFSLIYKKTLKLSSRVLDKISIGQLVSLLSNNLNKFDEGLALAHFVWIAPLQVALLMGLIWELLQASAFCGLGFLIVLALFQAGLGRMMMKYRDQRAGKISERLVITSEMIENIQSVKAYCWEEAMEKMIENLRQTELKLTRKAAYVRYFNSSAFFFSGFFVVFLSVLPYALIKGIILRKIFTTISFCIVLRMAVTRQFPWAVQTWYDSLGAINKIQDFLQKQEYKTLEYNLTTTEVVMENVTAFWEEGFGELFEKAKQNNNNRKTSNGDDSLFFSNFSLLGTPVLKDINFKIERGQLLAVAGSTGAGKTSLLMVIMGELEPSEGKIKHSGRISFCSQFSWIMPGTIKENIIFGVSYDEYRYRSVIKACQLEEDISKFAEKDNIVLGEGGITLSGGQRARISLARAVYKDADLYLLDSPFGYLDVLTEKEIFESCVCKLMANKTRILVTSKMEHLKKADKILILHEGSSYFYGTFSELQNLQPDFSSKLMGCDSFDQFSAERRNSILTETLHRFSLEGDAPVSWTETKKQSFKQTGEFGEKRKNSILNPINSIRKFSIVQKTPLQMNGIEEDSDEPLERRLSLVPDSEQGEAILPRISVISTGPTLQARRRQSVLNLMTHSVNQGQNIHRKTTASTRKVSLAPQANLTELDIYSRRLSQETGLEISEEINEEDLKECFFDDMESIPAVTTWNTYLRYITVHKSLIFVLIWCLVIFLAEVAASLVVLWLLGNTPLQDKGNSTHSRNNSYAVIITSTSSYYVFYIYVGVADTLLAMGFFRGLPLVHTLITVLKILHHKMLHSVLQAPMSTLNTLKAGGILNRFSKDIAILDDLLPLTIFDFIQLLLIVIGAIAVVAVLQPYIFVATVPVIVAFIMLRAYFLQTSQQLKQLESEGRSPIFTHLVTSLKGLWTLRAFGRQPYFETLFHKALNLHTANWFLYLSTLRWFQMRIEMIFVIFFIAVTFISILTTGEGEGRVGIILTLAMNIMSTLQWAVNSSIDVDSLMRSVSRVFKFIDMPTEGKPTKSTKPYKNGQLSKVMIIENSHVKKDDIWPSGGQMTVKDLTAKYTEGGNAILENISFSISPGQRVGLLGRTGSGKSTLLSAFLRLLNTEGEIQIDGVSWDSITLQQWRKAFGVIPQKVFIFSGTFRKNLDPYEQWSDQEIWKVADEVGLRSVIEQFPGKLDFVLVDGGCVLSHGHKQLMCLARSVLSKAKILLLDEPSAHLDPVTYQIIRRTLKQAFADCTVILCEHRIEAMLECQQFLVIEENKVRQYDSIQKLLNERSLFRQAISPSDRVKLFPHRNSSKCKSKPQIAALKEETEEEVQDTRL
From the text: (§1) The human CFTR expressing HEK cell pools with the mutations described below were generated by integrase-mediated homologous recombination of the CFTR sequence into the T-REx HEK293 background (Thermo Fisher Scientific). This expression system allows the tetracycline-inducible expression of genes of interest from one defined insertion site. Parental T-REx-HEK293 cells were cultivated in growth medium: Dulbecco’s modified Eagle’s medium + GlutaMAX-I (#31966, Life Technologies), 10% dialyzed FBS (Gibco, #26400), penicillin (100 U/ml), streptomycin (100 μg/ml), hygromycin B (0.1 mg/ml; Life Technologies), blasticidin (5 μg/ml; Invitrogen, #R210-01), and 0.1 mM nonessential amino acid solution (Invitrogen, #11140-035). Recombinant T-REx-HEK-CFTR cells were generated by lipofectamine transfection (Life Technologies) of plasmids containing mutated versions of CFTR (RefSeq NM_000492) and then cultivated in selection medium [growth medium containing Geneticin (1 mg/ml) (Invitrogen, #10131-027) instead of hygromycin]. The plasmid constructs were synthetized by GENEART (Thermo Fisher Scientific) and designed with the WT CFTR intron 5 to 6 (880 nucleotides) to prevent leaky expression issues during the cloning process in bacteria. […]

V520F CFTR = target: T2, V520F CFTR (Homo sapiens, UniProt P13569, V520F); assay: CFTR correction (immunoblotting), HEK-TREx, V520F; type: cell-based; details: 48 hours, IDOR-3 2 μM, IDOR-4 0.4 μM, TEZ 2 μM + ELX 0.4 μM
T2 construct: expressed in transfected cells; host or cells: T-REx HEK293
T2 sequence (P13569 whole entry V520F): as the sequence (P13569 whole entry S945L) above, with V520F, L945S counted along it
From the text: as §1

R1066C CFTR = target: T3, R1066C CFTR (Homo sapiens, UniProt P13569, R1066C); assay: CFTR correction (immunoblotting), HEK-TREx, R1066C; type: cell-based; details: 48 hours, IDOR-3 2 μM, IDOR-4 0.4 μM, TEZ 2 μM + ELX 0.4 μM
T3 construct: expressed in transfected cells; host or cells: T-REx HEK293
T3 sequence (P13569 whole entry R1066C): as the sequence (P13569 whole entry S945L) above, with L945S, R1066C counted along it
From the text: as §1

F508del-CFTR = F508del-CFTR (Homo sapiens, UniProt P13569, DEL508-508); assay: CFTR immunoblotting in HEK-TREx cells expressing F508del-CFTR; type: cell-based; set-up: expressed in transfected cells; host or cells: T-REx HEK293; details: 48 hours, IDOR-3 2 μM, IDOR-4 0.4 μM
F508del-CFTR, sequence (P13569 with tags, fused parts or gaps DEL508-508): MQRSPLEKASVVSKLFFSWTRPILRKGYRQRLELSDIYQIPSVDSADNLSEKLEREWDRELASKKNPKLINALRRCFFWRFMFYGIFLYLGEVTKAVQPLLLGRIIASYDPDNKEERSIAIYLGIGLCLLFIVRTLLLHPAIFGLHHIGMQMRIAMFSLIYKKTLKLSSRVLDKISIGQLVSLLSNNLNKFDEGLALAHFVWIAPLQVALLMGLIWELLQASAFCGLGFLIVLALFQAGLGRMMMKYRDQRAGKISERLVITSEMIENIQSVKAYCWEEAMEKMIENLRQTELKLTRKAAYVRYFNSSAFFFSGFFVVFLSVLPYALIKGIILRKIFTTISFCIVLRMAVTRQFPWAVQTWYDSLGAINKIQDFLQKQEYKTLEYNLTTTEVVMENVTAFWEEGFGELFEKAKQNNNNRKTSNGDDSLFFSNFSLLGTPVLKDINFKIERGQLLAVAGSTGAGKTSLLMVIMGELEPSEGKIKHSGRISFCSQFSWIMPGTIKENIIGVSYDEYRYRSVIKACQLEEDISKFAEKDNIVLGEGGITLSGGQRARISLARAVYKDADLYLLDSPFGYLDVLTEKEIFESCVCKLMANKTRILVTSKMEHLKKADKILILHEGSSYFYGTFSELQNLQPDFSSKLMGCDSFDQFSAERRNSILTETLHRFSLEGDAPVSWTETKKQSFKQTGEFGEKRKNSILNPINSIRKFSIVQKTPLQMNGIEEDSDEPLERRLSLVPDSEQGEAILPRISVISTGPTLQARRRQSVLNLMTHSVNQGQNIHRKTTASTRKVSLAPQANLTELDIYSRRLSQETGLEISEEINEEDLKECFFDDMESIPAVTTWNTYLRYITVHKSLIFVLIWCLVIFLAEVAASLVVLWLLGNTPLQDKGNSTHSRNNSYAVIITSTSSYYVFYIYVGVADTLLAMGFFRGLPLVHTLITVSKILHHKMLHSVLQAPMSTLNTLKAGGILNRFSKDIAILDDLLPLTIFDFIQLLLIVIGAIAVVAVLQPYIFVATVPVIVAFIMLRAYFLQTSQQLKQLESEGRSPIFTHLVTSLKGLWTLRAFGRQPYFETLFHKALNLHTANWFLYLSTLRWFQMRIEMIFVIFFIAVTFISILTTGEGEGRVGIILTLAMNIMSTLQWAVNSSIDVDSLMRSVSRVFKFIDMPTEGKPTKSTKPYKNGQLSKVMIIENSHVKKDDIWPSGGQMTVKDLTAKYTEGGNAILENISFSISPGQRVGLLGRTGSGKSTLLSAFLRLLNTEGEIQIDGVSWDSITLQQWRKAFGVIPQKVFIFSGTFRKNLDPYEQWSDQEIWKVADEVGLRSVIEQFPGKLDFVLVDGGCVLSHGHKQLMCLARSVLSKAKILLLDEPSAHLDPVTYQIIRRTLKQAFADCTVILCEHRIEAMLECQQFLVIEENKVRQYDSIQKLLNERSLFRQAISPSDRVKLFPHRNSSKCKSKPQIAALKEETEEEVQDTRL
From the text: as §1

F508del.L15W-CFTR = assay: Site-directed mutagenesis immunoblotting, HEK-TREx, F508del.L15W-CFTR; type: cell-based, human; details: 40 h, 2 μM
From the text: as §1

R560T CFTR = target: T4, R560T CFTR (Homo sapiens, UniProt P13569, R560T); assay: CFTR correction (immunoblotting), HEK-TREx, R560T; type: cell-based; details: 48 hours, IDOR-3 2 μM, IDOR-4 0.4 μM, TEZ 2 μM + ELX 0.4 μM
T4 construct: expressed in transfected cells; host or cells: T-REx HEK293
T4 sequence (P13569 whole entry R560T): as the sequence (P13569 whole entry S945L) above, with R560T, L945S counted along it
From the text: as §1

I507del CFTR = target: T5, I507del CFTR (Homo sapiens, UniProt P13569, DEL507-507); assay: CFTR correction (immunoblotting), HEK-TREx, I507del; type: cell-based; details: 48 hours, IDOR-3 2 μM, IDOR-4 0.4 μM, TEZ 2 μM + ELX 0.4 μM
T5 construct: expressed in transfected cells; host or cells: T-REx HEK293
T5 sequence (P13569 with tags, fused parts or gaps DEL507-507): as the sequence (P13569 with tags, fused parts or gaps DEL508-508) above, with I507F counted along it
From the text: as §1

G85E CFTR = target: T6, G85E CFTR (Homo sapiens, UniProt P13569, G85E); assay: CFTR correction (immunoblotting), HEK-TREx, G85E; type: cell-based; details: 48 hours, IDOR-3 2 μM, IDOR-4 0.4 μM, TEZ 2 μM + ELX 0.4 μM
T6 construct: expressed in transfected cells; host or cells: T-REx HEK293
T6 sequence (P13569 whole entry G85E): as the sequence (P13569 whole entry S945L) above, with G85E, L945S counted along it
From the text: as §1

M1101K CFTR = target: T7, M1101K CFTR (Homo sapiens, UniProt P13569, M1101K); assay: CFTR correction (immunoblotting), HEK-TREx, M1101K; type: cell-based; details: 48 hours, IDOR-3 2 μM, IDOR-4 0.4 μM, TEZ 2 μM + ELX 0.4 μM
T7 construct: expressed in transfected cells; host or cells: T-REx HEK293
T7 sequence (P13569 whole entry M1101K): as the sequence (P13569 whole entry S945L) above, with L945S, M1101K counted along it
From the text: as §1

R347P CFTR = target: T8, R347P CFTR (Homo sapiens, UniProt P13569, R347P); assay: CFTR correction (immunoblotting), HEK-TREx, R347P; type: cell-based; details: 48 hours, IDOR-3 2 μM, IDOR-4 0.4 μM, TEZ 2 μM + ELX 0.4 μM
T8 construct: expressed in transfected cells; host or cells: T-REx HEK293
T8 sequence (P13569 whole entry R347P): as the sequence (P13569 whole entry S945L) above, with R347P, L945S counted along it
From the text: as §1

| Compound | acute effect on CFTR currents (CFTR) | correction of S945L (S945L CFTR) | correction of V520F (V520F CFTR) | correction of R1066C (R1066C CFTR) | increase in C-band expression (F508del-CFTR) [fold] | correction by macrocycles versus [LUM + BAM] (F508del.L15W-CFTR) | correction of R560T (R560T CFTR) | correction of I507del (I507del CFTR) | correction of G85E (G85E CFTR) | correction of M1101K (M1101K CFTR) | correction of R347P (R347P CFTR) |
| --- | --- | --- | --- | --- | --- | --- | --- | --- | --- | --- | --- |
| Cc1nn(C)cc1S(=O)(=O)NC(=O)c1ccc(-n2ccc(OCC(C)(C)C(F)(F)F)n2)nc1N1C[C@@H](C)CC1(C)C [ELX, elexacaftor] | copotentiating effects | – | – | – | – | – | – | – | – | – | – |
| COc1cc(CCNC(=O)C2CC(=O)N(C)C(CC(C)C)C(=O)N3CCCCC3C(=O)NC(Cc3ccccc3)COc3ccc4ncc(F)cc4c3C(=O)N2)on1 (centres unmarked) [IDOR-3] | – | highly effective | highly effective | highly effective | 9 | little difference | highly effective | highly effective | highly effective | highly effective | highly effective |
